Values of other authors as cited in patent US20070212386A1, “COATINGS FOR IMPLANTABLE MEDICAL DEVICES” (Sahajanand Medical Technologies Pvt. Ltd., priority 2006, published 2007).

Experiments:
[1] = tested on: collagen induced platelet aggregation; details: literature refs [2,5]
[2] = general statement

In the case of `O=c1c(-c2ccc(O)cc2)coc2cc(O)cc(O)c12` [Genistein, 5,7-dihydroxy-3-(4-hydroxyphenyl)-4H-1-benzopyran-4-one], the “concentration preventing collagen induced platelet aggregation” value [1] is given as “more than 25 μM” and the solubility in water [2] is given as “practically insoluble in water”.

For `O=c1c(-c2ccc(O)cc2)coc2cc(O[C@@H]3O[C@H](CO)[C@@H](O)[C@H](O)[C@H]3O)cc(O)c12` [Genistin], the solubility in water [2] is listed as “greater water solubility than genistein”.

In the case of `O=c1c(O)c(-c2ccc(O)c(O)c2)oc2cc(O)cc(O)c12` [Quercetin, 2-(3,4-dihydroxyphenyl)-3,5,7-trihydroxy-4H-1-benzopyran-4-one], the solubility in water [2] is listed as “practically insoluble in water”.
